Experimental data published in the supplement of paper PMC6461962.

How the values were obtained:
[1] = system: Rhodanobacter sp. FW104-10B01
Method in brief: (§1)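 Growth was read as OD600 at 24 h, or at 48 h for R2A strain comparisons, after washed cells at a final OD600 of 0.02 (80 µL) were added to 384-well plates holding serially diluted inorganic ion salts or equimolar nitrilotriacetic acid complexes. Aerobic plates were shaken at 700 rpm at 30 °C, but anaerobic plates were not. IC50 was calculated with the drc R package from at least two biological replicate curves, scaled between water and growth-blocking antibiotic controls and excluding wells with precipitate.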

[2] = system: Pseudomonas fluorescens FW300-N2E2
Method in brief: as §1

[3] = medium / electron acceptor: 10B01 R2A/aerobic
[4] = medium / electron acceptor: 10B01 R2A/nitrate
[5] = medium / electron acceptor: N2E2 Glucose/aerobic
[6] = medium / electron acceptor: N2E2 Glucose/aerobic 0.25xMinerals
[7] = medium / electron acceptor: N2E2 Glucose/aerobic (2)
[8] = medium / electron acceptor: N2E2 KB/aerobic
[9] = medium / electron acceptor: N2E2 LB/aerobic
[10] = medium / electron acceptor: N2E2 LB/aerobic (2)
[11] = medium / electron acceptor: N2E2 LB/nitrate
[12] = medium / electron acceptor: N2E2 Lactate/aerobic
[13] = medium / electron acceptor: N2E2 R2A/aerobic

How did the IC50 growth inhibition [1, 3] turn out when `O.O.O.O.O.O.[Cl-].[Cl-].[Co+2]` [Cobalt chloride hexahydrate] was run?
The IC50 growth inhibition was 0.592 mM.

What about the IC50 growth inhibition [1, 4] of the same compound?
The IC50 growth inhibition was 0.484 mM.

And the IC50 growth inhibition [2, 5]?
Its IC50 growth inhibition is less than 0.00244 mM.

And the IC50 growth inhibition [2, 6]?
Its IC50 growth inhibition is less than 0.00244 mM.

And the IC50 growth inhibition [2, 7]?
The IC50 growth inhibition was less than 0.00244 mM.

And the IC50 growth inhibition [2, 8]?
Its IC50 growth inhibition is 0.0208 mM.

What about the IC50 growth inhibition [2, 9] of the same compound?
Its IC50 growth inhibition is 0.175 mM.

What about the IC50 growth inhibition [2, 10] of the same compound?
Its IC50 growth inhibition is 0.0867 mM.

And the IC50 growth inhibition [2, 11]?
The IC50 growth inhibition was greater than 5 mM.

What about the IC50 growth inhibition [2, 12] of the same compound?
The IC50 growth inhibition was 0.00741 mM.

And the IC50 growth inhibition [2, 13]?
The IC50 growth inhibition was 0.0138 mM.

For `O.[Au+3].[Cl-].[Cl-].[Cl-]` [gold (III) chloride hydrate], which IC50 growth inhibition [1, 3] is on record?
The IC50 growth inhibition was less than 0.000244 mM.

What about the IC50 growth inhibition [1, 4] of the same compound?
Its IC50 growth inhibition is less than 0.000244 mM.

What about the IC50 growth inhibition [2, 5] of the same compound?
The IC50 growth inhibition was less than 0.000244 mM.

What about the IC50 growth inhibition [2, 6] of the same compound?
The IC50 growth inhibition was 0.00197 mM.

What about the IC50 growth inhibition [2, 7] of the same compound?
The IC50 growth inhibition was less than 0.000244 mM.

What about the IC50 growth inhibition [2, 8] of the same compound?
Its IC50 growth inhibition is less than 0.000244 mM.

What about the IC50 growth inhibition [2, 9] of the same compound?
Its IC50 growth inhibition is less than 0.000244 mM.

And the IC50 growth inhibition [2, 10]?
Its IC50 growth inhibition is less than 0.000244 mM.

What about the IC50 growth inhibition [2, 11] of the same compound?
The IC50 growth inhibition was less than 0.000244 mM.

What about the IC50 growth inhibition [2, 12] of the same compound?
The IC50 growth inhibition was 0.000257 mM.

And the IC50 growth inhibition [2, 13]?
The IC50 growth inhibition was less than 0.000244 mM.

With `[Cl][Ga]([Cl])[Cl]` [Gallium(III)chloride] as the compound, how does the IC50 growth inhibition [1, 3] read?
Its IC50 growth inhibition is 1 mM.

And the IC50 growth inhibition [1, 4]?
Its IC50 growth inhibition is 1.67 mM.

And the IC50 growth inhibition [2, 5]?
Its IC50 growth inhibition is less than 0.0244 mM.

What about the IC50 growth inhibition [2, 6] of the same compound?
The IC50 growth inhibition was less than 0.0244 mM.

What about the IC50 growth inhibition [2, 7] of the same compound?
The IC50 growth inhibition was less than 0.0244 mM.

What about the IC50 growth inhibition [2, 8] of the same compound?
The IC50 growth inhibition was less than 0.0244 mM.

And the IC50 growth inhibition [2, 9]?
Its IC50 growth inhibition is less than 0.0244 mM.

And the IC50 growth inhibition [2, 10]?
The IC50 growth inhibition was less than 0.0244 mM.

What about the IC50 growth inhibition [2, 11] of the same compound?
The IC50 growth inhibition was less than 0.0244 mM.

And the IC50 growth inhibition [2, 12]?
The IC50 growth inhibition was less than 0.0244 mM.

And the IC50 growth inhibition [2, 13]?
The IC50 growth inhibition was less than 0.0244 mM.

What does the source list for `[O-][Cl+3]([O-])([O-])O` [Sodium perchlorate monohydrate]?
IC50 growth inhibition [1, 3]: 354 mM; IC50 growth inhibition [1, 4]: 5.54 mM; IC50 growth inhibition [2, 5]: 67.2 mM; IC50 growth inhibition [2, 6]: 356 mM; IC50 growth inhibition [2, 7]: 117 mM; IC50 growth inhibition [2, 8]: 82 mM; IC50 growth inhibition [2, 9]: 95 mM; IC50 growth inhibition [2, 10]: 106 mM; IC50 growth inhibition [2, 11]: 69.8 mM; IC50 growth inhibition [2, 12]: 235 mM; IC50 growth inhibition [2, 13]: 89.4 mM

Which IC50 growth inhibition [1, 3] does the source give for `O=[Se](=O)([O-])[O-].[Na+].[Na+]` [Sodium selenate] here?
Its IC50 growth inhibition is 251 mM.

And the IC50 growth inhibition [1, 4]?
The IC50 growth inhibition was 163 mM.

What about the IC50 growth inhibition [2, 5] of the same compound?
Its IC50 growth inhibition is less than 0.244 mM.

And the IC50 growth inhibition [2, 6]?
The IC50 growth inhibition was less than 0.244 mM.

What about the IC50 growth inhibition [2, 7] of the same compound?
The IC50 growth inhibition was less than 0.244 mM.

And the IC50 growth inhibition [2, 8]?
The IC50 growth inhibition was 290 mM.

And the IC50 growth inhibition [2, 9]?
Its IC50 growth inhibition is 354 mM.

And the IC50 growth inhibition [2, 10]?
The IC50 growth inhibition was 300 mM.

What about the IC50 growth inhibition [2, 11] of the same compound?
The IC50 growth inhibition was 189 mM.

And the IC50 growth inhibition [2, 12]?
The IC50 growth inhibition was less than 0.244 mM.

What about the IC50 growth inhibition [2, 13] of the same compound?
Its IC50 growth inhibition is 62.5 mM.

Which results are given for `O=P[O-].[Na+]` [Sodium hypophosphite monohydrate]?
IC50 growth inhibition [1, 3]: 354 mM; IC50 growth inhibition [1, 4]: 171 mM; IC50 growth inhibition [2, 5]: 354 mM; IC50 growth inhibition [2, 6]: 451 mM; IC50 growth inhibition [2, 7]: 146 mM; IC50 growth inhibition [2, 8]: 380 mM; IC50 growth inhibition [2, 9]: 354 mM; IC50 growth inhibition [2, 10]: > 500 mM; IC50 growth inhibition [2, 11]: 306 mM; IC50 growth inhibition [2, 12]: 354 mM; IC50 growth inhibition [2, 13]: > 500 mM

With `[Na+].[Na+].[O]=[Mo](=[O])([O-])[O-]` [Sodium molybdate] as the compound, how does the IC50 growth inhibition [1, 3] read?
The IC50 growth inhibition was 354 mM.

And the IC50 growth inhibition [1, 4]?
The IC50 growth inhibition was 262 mM.

And the IC50 growth inhibition [2, 5]?
The IC50 growth inhibition was 20.3 mM.

What about the IC50 growth inhibition [2, 6] of the same compound?
Its IC50 growth inhibition is 2.62 mM.

And the IC50 growth inhibition [2, 7]?
The IC50 growth inhibition was 3.39 mM.

What about the IC50 growth inhibition [2, 8] of the same compound?
The IC50 growth inhibition was 337 mM.

What about the IC50 growth inhibition [2, 9] of the same compound?
Its IC50 growth inhibition is 369 mM.

What about the IC50 growth inhibition [2, 10] of the same compound?
The IC50 growth inhibition was 354 mM.

What about the IC50 growth inhibition [2, 11] of the same compound?
Its IC50 growth inhibition is 214 mM.

And the IC50 growth inhibition [2, 12]?
The IC50 growth inhibition was 162 mM.

And the IC50 growth inhibition [2, 13]?
Its IC50 growth inhibition is 231 mM.

How did the IC50 growth inhibition [1, 3] turn out when `O.O.O.O.[Cl][Mn][Cl]` [Manganese (II) chloride tetrahydrate] was run?
The IC50 growth inhibition was greater than 5 mM.

What about the IC50 growth inhibition [1, 4] of the same compound?
Its IC50 growth inhibition is greater than 5 mM.

What about the IC50 growth inhibition [2, 5] of the same compound?
Its IC50 growth inhibition is greater than 5 mM.

What about the IC50 growth inhibition [2, 6] of the same compound?
Its IC50 growth inhibition is greater than 5 mM.

And the IC50 growth inhibition [2, 7]?
The IC50 growth inhibition was 1.57 mM.

And the IC50 growth inhibition [2, 8]?
The IC50 growth inhibition was greater than 5 mM.

What about the IC50 growth inhibition [2, 9] of the same compound?
Its IC50 growth inhibition is 3.79 mM.

What about the IC50 growth inhibition [2, 10] of the same compound?
Its IC50 growth inhibition is 3.91 mM.

What about the IC50 growth inhibition [2, 11] of the same compound?
Its IC50 growth inhibition is greater than 5 mM.

And the IC50 growth inhibition [2, 12]?
The IC50 growth inhibition was greater than 5 mM.

And the IC50 growth inhibition [2, 13]?
The IC50 growth inhibition was 1.45 mM.
